Measured values: paper PMC9841524, “Structure-Based Rational Design of Small α-Helical Peptides with Broad-Spectrum Activity against Multidrug-Resistant Pathogens” (Journal of Medicinal Chemistry, 2022)
Like-named read-outs stand apart in the source and are kept apart here.

Assays:
S. aureus (ATCC 29213) = test: MIC, standard microtiter dilution (CLSI); assay type: cell-based; conditions: broth microdilution (CLSI), CAMHB, 37 °C, 24 h
Procedure, shortened: (§1)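 Broth microdilution per CLSI: overnight cultures diluted in cation-adjusted Mueller Hinton Broth to 10^6 CFU/mL, mixed with 2-fold serial peptide dilutions, incubated 37 °C for 24 h. MIC = lowest peptide concentration inhibiting growth. Three independent assays in triplicate.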

E. coli (ATCC 25922) = conditions: broth microdilution (CLSI), CAMHB, 37 °C, 24 h
Procedure, shortened: as §1

MRSA (ATCC BAA-1556) = conditions: broth microdilution (CLSI), CAMHB, 37 °C, 24 h
Procedure, shortened: as §1

[1] = test system: P. aeruginosa (ATCC 27883); test: MIC, standard microtiter dilution (CLSI); assay type: cell-based, Pseudomonas aeruginosa; conditions: broth microdilution (CLSI), CAMHB, 37 °C, 24 h
Procedure, shortened: as §1

[2] = test system: K. pneumoniae (ATCCBAA-1705); test: MIC, standard microtiter dilution (CLSI); assay type: cell-based, Klebsiella pneumoniae; conditions: broth microdilution (CLSI), CAMHB, 37 °C, 24 h
Procedure, shortened: as §1

[3] = test system: human red blood cells (hRBCs); test: Hemolytic assay; assay type: cell-based; conditions: 2 h, 37 °C
Procedure, shortened: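 Percent hemolysis uses PBS as 0% and 1% Triton X-100 as 100% references, from supernatant absorbance at 567 nm. Red cells (4% in PBS, equal volume) exposed 2 h at 37 °C without agitation to 2-fold serially diluted peptide.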

[4] = Relative hydrophobicity as RP-HPLC retention time; assay type: physicochemical; conditions: chromatographic, Phenomenex Luna C18 4 μm 150 × 4.6 mm, linear AB gradient 1% acetonitrile/min, 0.3 mL/min, A water 0.1% TFA, B acetonitrile 0.1% TFA, 25 °C
Procedure: The purity analysis of the peptides was conducted on a RP-HPLC system (Shimadzu; LC-20ADXR) by using a Phenomenex (Luna) analytical C18 column (4 μm, 150 × 4.6 mm). The mass of the purified peptides was determined in the positive-ion mode using Q-TOF LC/MS (Compass Hystar 4.1, Bruker, USA). The purity (>95%) and mass data of all the synthesized peptides are provided in the Supporting Information.
8. Comparative Hydrophobicity analysis
The purity of all synthesized peptides was determined using reverse phase analytical HPLC
(Shimadzu; LC-20ADXR). Below mentioned are the conditions used to conduct the purity
Column: Phenomenex (Luna), 4 um, C18, 150 × 4.6 mm
Mobile Phase: Buffer A-Water containing 0.1% TFA,
Buffer B-Acetonitrile containing 0.1% TFA
Figure S52. HPLC chromatogram of 6a.
(1 picture or pasted object on this page, not shown here)

[5] = CD spectroscopy, helicity; assay type: physicochemical; set-up: key to Δ[θ]222 induced by TFE / Δ[θ]222 induced by Liposomes: mean residue molar ellipticity, mdeg cm2/(dmol × res); conditions: for [θ]222 mean residue molar ellipticity, TFE / [θ]222 mean residue molar ellipticity, Liposomes / [θ]222 mean residue molar ellipticity, PBS: CD at 222 nm, 25 °C; for [θ]222 mean residue molar ellipticity, TFE: aqueous buffer containing 50% TFE; for [θ]222 mean residue molar ellipticity, Liposomes / Δ[θ]222 induced by Liposomes: bacterial membrane mimicking liposomes; for [θ]222 mean residue molar ellipticity, Liposomes: peptide:lipid molar ratio 1:1.05; for [θ]222 mean residue molar ellipticity, PBS: phosphate buffer saline pH 7.0; for Δ[θ]222 induced by TFE / Δ[θ]222 induced by Liposomes: difference to PBS; for Δ[θ]222 induced by TFE: 50% TFE; for % of helicity induced by TFE: increase in molar ellipticity at 222 nm in the presence of 50% TFE; for % of helicity induced by Liposomes: increase in molar ellipticity at 222 nm in the presence of liposomes;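 on % of helicity induced by Liposomes: share of the total helicity with liposomes gained over the same peptide in PBS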;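 on % of helicity induced by TFE: share of the total helicity in TFE gained over the same peptide in PBS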
Procedure: The CD spectra of peptides were recorded using a Jasco J-1500 CD spectrophotometer (Jasco, Easton, MD) at 25 °C with a 1 mm path length cell. Wavelengths from 190 to 260 nm were scanned with 1.0 nm step resolution, 100 nm/min speed, 0.4 s response time, and 1 nm bandwidth. CD spectra of the peptides were collected and averaged over three scans in 10 mM sodium phosphate buffer (pH 7.2), helix-inducing solvent 50% TFE (v/v), and bacterial mimic liposomes (75 μM lipid). Spectra were corrected by subtracting a baseline spectrum containing only buffer or 50% TFE or liposomes. The mean residue molar ellipticity was calculated using the formula [drawing 3] where Ab222 is the absorbance observed at 222 nm, MRW is the mean residue molecular weight, C is the concentration in mg/mL, and L is the path length.
Table S1. RP-HPLC retention times and CD spectroscopy analysis of the selected peptides Peptide tR (min)a [θ]222b Δ[θ]222 induced by % of helicity inducedc by PBS TFE Liposomes TFE Liposomes TFE Liposomes […]
atR (min) denotes the retention time at 25°C by RP-HPLC. bThe mean residue molar ellipticity [θ] 222 (mdeg cm2/(dmol × res)) at 222 nm was measured at 25 °C in phosphate buffer saline (PBS, pH 7.0), in aqueous buﬀer containing 50% TFE (TFE), or in presence of bacterial membrane mimicking liposomes (peptide:lipid […]
c% helix induced is the increase in the molar ellipticity at 222 nm (in percentage) of a peptide in the presence of TFE or liposomes.

[6] = 10^6 CFU/mL, highest MIC of three independent experiments in triplicate
[7] = hRBC suspension 4% in PBS, hemoglobin release at 567 nm, 1% Triton X-100 = 100%
[8] = value in parentheses (μM), hRBC 4% in PBS, 567 nm

Substance	MIC, S. aureus (ATCC 29213) (S. aureus (ATCC 29213); [6])	MIC, S. aureus (ATCC 29213) (S. aureus (ATCC 29213); value in parentheses (μM))	MIC, E. coli (ATCC 25922) (E. coli (ATCC 25922); [6])	MIC, E. coli (ATCC 25922) (E. coli (ATCC 25922); value in parentheses (μM))	MIC, MRSA (ATCC BAA-1556) (MRSA (ATCC BAA-1556); [6])	MIC, MRSA (ATCC BAA-1556) (MRSA (ATCC BAA-1556); value in parentheses (μM))	MIC, P. aeruginosa (ATCC 27883) [1, 6]	MIC, P. aeruginosa (ATCC 27883) ([1]; value in parentheses (μM))	MIC, K. pneumoniae (ATCCBAA-1705) [2, 6]	MIC, K. pneumoniae (ATCCBAA-1705) ([2]; value in parentheses (μM))	HC50 (concentration at which 50% hemolysis was observed) [3, 7]	HC50 (concentration at which 50% hemolysis was observed) [3, 8]	tR, RP-HPLC retention time (measure of overall hydrophobicity) [4]	[θ]222 mean residue molar ellipticity, TFE [5]	[θ]222 mean residue molar ellipticity, Liposomes [5]	[θ]222 mean residue molar ellipticity, PBS [5]	Δ[θ]222 induced by TFE [5]	Δ[θ]222 induced by Liposomes [5]	% of helicity induced by TFE [5]	% of helicity induced by Liposomes [5]
Ac-KWIKKWIKWWKK-NH2 [7d]	6.2 µg/mL	3.45 µM	12.5 µg/mL	6.95 µM	6.2 µg/mL	3.45 µM	12.5 µg/mL	6.95 µM	25 µg/mL	13.89 µM	160 µg/mL	88.92 µM	38.75 min	-11272 mdeg cm2/(dmol × res)	-19755 mdeg cm2/(dmol × res)	-3826 mdeg cm2/(dmol × res)	-7446	-15929	66.05%	80.63%
Ac-RWLRRWLRWWRR-NH2 [8c]	6.2 µg/mL	3.15 µM	12.5 µg/mL	6.35 µM	6.2 µg/mL	3.15 µM	12.5 µg/mL	6.35 µM	12.5 µg/mL	6.35 µM	30 µg/mL	15.25 µM	41.20 min	-13735 mdeg cm2/(dmol × res)	-19930 mdeg cm2/(dmol × res)	-8173 mdeg cm2/(dmol × res)	-5562	-11757	40.49%	58.99%
Ac-KWAKKWAKWWKK-NH2 [6d]	50 µg/mL	29.15 µM	100 µg/mL	58.30 µM	100 µg/mL	58.30 µM	100 µg/mL	58.30 µM	100 µg/mL	58.30 µM	345 µg/mL	201.15 µM	32.81 min	-18432 mdeg cm2/(dmol × res)	-24274 mdeg cm2/(dmol × res)	-13464 mdeg cm2/(dmol × res)	-4968	-10810	26.95%	44.53%
